From patent US8129355B2, “Ketone ligands for modulating the expression of exogenous genes via an ecdysone receptor complex” (priority 2002, dated 2012) come the findings set out here.

Series [1] concerns the target T1, Bombyx mori EcR (VP16 fusion, switch construct CVBE) with 6XEcRE LacZ reporter (Bombyx mori, UniProt P49881).
T1 construct: expressed in transfected cells; host or cells: Human 293 kidney (HEK-293) cells, retrovirally infected, clone Z3
T1 sequence (P49881 86-606 limits assumed): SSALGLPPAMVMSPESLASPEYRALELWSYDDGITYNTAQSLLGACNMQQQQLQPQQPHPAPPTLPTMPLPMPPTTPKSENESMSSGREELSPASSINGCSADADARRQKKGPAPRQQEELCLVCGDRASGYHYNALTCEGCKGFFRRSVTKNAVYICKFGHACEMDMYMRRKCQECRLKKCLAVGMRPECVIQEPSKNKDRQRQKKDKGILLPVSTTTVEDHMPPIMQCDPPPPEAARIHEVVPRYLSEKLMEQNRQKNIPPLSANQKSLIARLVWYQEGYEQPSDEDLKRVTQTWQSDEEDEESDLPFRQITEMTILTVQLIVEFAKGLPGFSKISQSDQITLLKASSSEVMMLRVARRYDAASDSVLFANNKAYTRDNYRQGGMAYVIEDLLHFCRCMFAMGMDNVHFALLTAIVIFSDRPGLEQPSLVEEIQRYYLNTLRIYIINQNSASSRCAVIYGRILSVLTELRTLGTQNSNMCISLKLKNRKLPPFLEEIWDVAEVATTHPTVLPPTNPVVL
T1 sequence (P19793 1-462 partner): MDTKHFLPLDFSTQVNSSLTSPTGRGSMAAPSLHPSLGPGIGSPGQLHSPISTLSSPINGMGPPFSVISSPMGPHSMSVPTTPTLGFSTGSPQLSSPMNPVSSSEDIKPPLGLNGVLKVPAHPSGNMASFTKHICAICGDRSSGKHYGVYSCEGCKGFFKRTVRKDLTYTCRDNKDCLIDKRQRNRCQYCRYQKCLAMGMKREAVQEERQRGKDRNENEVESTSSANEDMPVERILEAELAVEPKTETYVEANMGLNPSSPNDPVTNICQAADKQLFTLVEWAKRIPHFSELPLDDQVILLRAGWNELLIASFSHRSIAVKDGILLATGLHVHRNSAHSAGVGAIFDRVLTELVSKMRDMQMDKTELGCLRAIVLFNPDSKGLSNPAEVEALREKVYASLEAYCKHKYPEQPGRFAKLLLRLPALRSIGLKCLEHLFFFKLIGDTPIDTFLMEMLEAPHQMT
Put plainly: Z3 assay: β-galactosidase (LacZ) reporter gene fold induction in stably transformed human 293 kidney cells (clone Z3). Type of series: cell-based. To be noted: for CC50: average, dose response, three-parameter logistic model, read-out: Z3 LC50; for Z3 Rel Max FI: maximum fold induction at any concentration relative to that of GS-E ligand. In short, it runs like this: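 β-Galactosidase read 48 h after dosing by bioluminescent assay; ligand added at 33 μM with DMSO held at 0.03%. The cells are stable 293 clone Z3, expressing a CMV-driven VP16 fusion of Bombyx mori EcR residues 26-546 plus six EcRE copies upstream of lacZ.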

The target in series [2] is T2, GAL4 DBD (1-147)-CfEcR(DEF)/VP16AD-βRXREF-LmUSPEF (Choristoneura fumiferana, UniProt O77240).
T2 sequence (O77240 191-513): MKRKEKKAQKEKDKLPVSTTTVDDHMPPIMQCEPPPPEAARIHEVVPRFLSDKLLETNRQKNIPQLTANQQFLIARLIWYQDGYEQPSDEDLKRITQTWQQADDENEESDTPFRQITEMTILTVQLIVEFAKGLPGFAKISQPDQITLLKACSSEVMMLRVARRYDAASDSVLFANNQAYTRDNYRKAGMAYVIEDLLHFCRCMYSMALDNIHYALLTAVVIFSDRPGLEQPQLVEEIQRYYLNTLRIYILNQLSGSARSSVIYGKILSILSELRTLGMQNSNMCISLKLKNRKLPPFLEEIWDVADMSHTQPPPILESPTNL
T2 sequence (P28702 296-455 partner limits assumed): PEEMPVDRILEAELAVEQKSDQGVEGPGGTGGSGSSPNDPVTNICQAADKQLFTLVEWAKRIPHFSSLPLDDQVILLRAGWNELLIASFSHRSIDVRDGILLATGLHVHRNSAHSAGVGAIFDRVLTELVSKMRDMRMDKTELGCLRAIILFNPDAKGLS
Put plainly: 27-63 assay: luciferase reporter gene expression in stable CHO cell clone 27-63. The following applies: for Fold Induction Average, 27-63 Assay (33 μM): single dose 33 μM, RLU ligand treated / RLU DMSO treated cells; for 27-63 Rel Max FI: maximum fold induction at any concentration relative to that of GS-E ligand; for CC50: read-out: 27-63 LC50, average, dose response, three-parameter logistic model. An excerpt: GAL4 DBD (1-147)-CfEcR(DEF)/VP16AD-βRXREF-LmUSPEF: The wild-type D, E, and F domains from spruce budworm Choristoneura fumiferana EcR (“CfEcR-DEF”; SEQ ID NO: 1) were fused to a GAL4 DNA binding domain (“Gal4 DBD1-147”; nucleotides 31 to 471 of SEQ ID NO: 2) and placed under the control of a phosphoglycerate kinase promoter (“PGK”; SEQ ID NO: 3). Helices 1 through 8 of the EF domains from Homo sapiens RXRβ and helices 9 through 12 of the EF domains of Locusta migratoria Ultraspiracle Protein (“HsRXRβ-EF-LmUSP-EF”; SEQ ID NO: 4) were fused to the transactivation domain from VP16 (“VP16AD”; SEQ ID NO: 5) and placed under the control of an elongation factor-1α promoter (“EF-1α”; SEQ ID NO: 6). Five consensus GAL4 response element binding sites (“5XGAL4RE”; comprising 5 copies of a GAL4RE comprising SEQ ID NO: 7) were fused to a synthetic TATA minimal promoter (SEQ ID NO: 8) and placed upstream of the luciferase reporter gene (SEQ ID NO: 9).
CHO cells were transiently transfected with transcription cassettes for GAL4 DBD (1-147) CfEcR(DEF) and for VP16AD βRXREF-LmUSPEF controlled by ubiquitously active cellular promoters (PGK and EF-1α, respectively) on a single plasmid. Stably transfected cells were selected by Zeocin resistance. Individually isolated CHO cell clones were transiently transfected with a GAL4 RE-luciferase reporter (pFR Luc). 27-63 clone was selected using Hygromycin.
Cells were trypsinized and diluted to a concentration of 2.5×10^4 cells mL. 100 μL of cell suspension was placed in each well of a 96 well plate and incubated at 37° C. under 5% CO2 for 24 h. Ligand stock solutions were prepared in DMSO and diluted 300 fold for all treatments. Dose response testing consisted of 8 concentrations ranging from 33 μM to 0.01 μM.
Luciferase reporter gene expression was measured 48 h after cell treatment using Bright-Glo™ Luciferase Assay System from Promega (E2650). Luminescence was detected at room temperature using a Dynex MLX microtiter plate luminometer.
Fold inductions were calculated from single dose testing by dividing relative light units (RLU) in ligand treated cells by RLU in DMSO treated cells. BC50s were calculated from dose response data using a three-parameter logistic model.

The mark [3] stands for this setting: single dose 33 μM, ligand treated / DMSO treated cells.

Structures are written as SMILES.

On to `COc1cccc(C(=O)NC2(C(=O)c3cc(C)cc(C)c3)CCCN(C(=O)OC(C)(C)C)C2)c1C` (racemic) [Example 146], for which the “Fold Induction Average, Z3 Assay (33 μM)” value in series [1] (setting [3]) is 1. In addition, in series [2], the “Fold Induction Average, 27-63 Assay (33 μM)” value came out at 1.
On to `COc1cccc(C(=O)NC2(C(=O)c3cc(C)cc(C)c3)CCCNC2)c1C` (racemic) [Example 148], for which the “Fold Induction Average, Z3 Assay (33 μM)” value in series [1] (setting [3]) came out at 7. Further, in series [2], the “Fold Induction Average, 27-63 Assay (33 μM)” value is listed as 2.
For `COc1cccc(C(=O)NC2(C(=O)c3cc(C)cc(C)c3)CCCN(C(C)=O)C2)c1C` (racemic) [Example 153] the same measures were 3 and 1.
Taken in the same sequence, the figures for `COc1cccc(C(=O)NC2(C(=O)c3cc(C)cc(C)c3)CCCN(S(C)(=O)=O)C2)c1C` (racemic) [Example 155] were 4 and 2.
As for `CCNC(=O)N1CCCC(NC(=O)c2cccc(OC)c2C)(C(=O)c2cc(C)cc(C)c2)C1` (racemic) [Example 160], in series [1] (setting [3]), the “Fold Induction Average, Z3 Assay (33 μM)” value was 1. Moreover, the “Fold Induction Average, 27-63 Assay (33 μM)” value in series [2] is given as 1.
`CCc1c(C(=O)NC2(C(=O)c3cc(C)cc(C)c3)CCCCC2)ccc2c1OCCO2` [Example 80]: in series [1], the CC50 came to 0.74 µM and the “Z3 Rel Max FI” value came to 0.89. In addition, in series [2], the “27-63 Rel Max FI” value came to 0.91 and the CC50 worked out at 0.39 µM.
For `Cc1cc(C)cc(C(=O)C2(NC(=O)c3ccc4c(c3C)OCO4)CCCCC2)c1` [Example 81] the same measures were 3.68 µM, 0.81, 0.91 and 3.22 µM.
With `Cc1cc(C)cc(C(=O)C2(NC(=O)c3ccc4c(c3)OCCO4)CCCCC2)c1` [Example 82], in series [1], the CC50 is 1.99 µM and the “Z3 Rel Max FI” value came out at 0.79. Further, in series [2], the “27-63 Rel Max FI” value amounted to 0.84 and the CC50 was determined as 1.78 µM.
For `Cc1cc(C)cc(C(=O)C2(NC(=O)c3ccc4c(c3)COCO4)CCCCC2)c1` [Example 83] the same measures were 6.15 µM, 0.41, 0.70 and 7.06 µM.
For `CCc1c(C(=O)NC2(C(=O)c3cc(C)cc(C)c3)CCCC2)ccc2c1OCCO2` [Example 84] the same measures were 1.59 µM, 0.91, 0.82 and 1.02 µM.
For `Cc1cc(C)cc(C(=O)C2(NC(=O)c3ccc4c(c3C)OCO4)CCCC2)c1` [Example 85] the same measures were 4.76 µM, 0.67, 0.94 and 3.86 µM.
On to `Cc1cc(C)cc(C(=O)C2(NC(=O)c3ccc4c(c3)OCCO4)CCCC2)c1` [Example 86], for which, in series [1], the CC50 worked out at 5.49 µM and the “Z3 Rel Max FI” value worked out at 0.61. Further, in series [2], the “27-63 Rel Max FI” value was 0.80 and the CC50 is 4.88 µM.
For `Cc1cc(C)cc(C(=O)C2(NC(=O)c3ccc4c(c3)COCO4)CCCC2)c1` [Example 87] the same measures were 9.46 µM, 0.17, 0.53 and 18.7 µM.
For `Cc1ccccc1C(=O)NC1(C(=O)c2ccccc2)CCCC1` [Example 140] the same measures were over 33 µM, 0.00, 0.00 and over 33 µM.
For `O=C(NC1(C(=O)c2ccccc2)CCCC1)c1ccc2c(c1)OCO2` [Example 142] the same measures were over 33 µM, 0.00, 0.00 and over 33 µM.
For `COc1cccc(C(=O)NC2(C(=O)c3cc(C)cc(C)c3)CCNCC2)c1C` [Example 147], the fold induction at 33 µM was 1 in series [1] (single dose 33 μM, ligand treated / DMSO treated cells, read-out: Fold Induction Average, Z3 Assay (33 μM)) and 1 in series [2] (CHO, read-out: Fold Induction Average, 27-63 Assay (33 μM)).
As for `CCOC(=O)C(=O)N1CCC(NC(=O)c2cccc(OC)c2C)(C(=O)c2cc(C)cc(C)c2)CC1` [Example 150], the “Fold Induction Average, Z3 Assay (33 μM)” value in series [1] (setting [3]) worked out at 3. In series [2], the “Fold Induction Average, 27-63 Assay (33 μM)” value is on record as 1.
As to `COc1cccc(C(=O)NC2(C(=O)c3cc(C)cc(C)c3)CCN(S(C)(=O)=O)CC2)c1C` [Example 151], the “Fold Induction Average, Z3 Assay (33 μM)” value in series [1] (setting [3]) is given as 3. Further, the “Fold Induction Average, 27-63 Assay (33 μM)” value in series [2] was 1.
As for `CCOC(=O)CN1CCC(NC(=O)c2cccc(OC)c2C)(C(=O)c2cc(C)cc(C)c2)CC1` [Example 152], the “Fold Induction Average, Z3 Assay (33 μM)” value in series [1] (setting [3]) amounted to 6. In series [2], the “Fold Induction Average, 27-63 Assay (33 μM)” value worked out at 3.
For `COc1cccc(C(=O)NC2(C(=O)c3cc(C)cc(C)c3)CCN(CC#N)CC2)c1C` [Example 159] the same measures were 2 and 1.
